Laboratory results reported in US12180143B1, “8-((4-hydroxy-3-methoxyphenyl)diazenyl)naphthalene-1,3-disulfonic acid as an antioxidant compound” (KING FAISAL UNIVERSITY, priority 2023, dated 2024).

Assay: DPPH radical scavenging antioxidant test
Assay type: biochemical
Conditions: 517 nm; for Inhibition (radical scavenging inhibition): 0.2 mL DPPH (0.75 mM), compound 3 μM in ethanol, 30 min incubation in the dark
Protocol: The antioxidant properties of the 8-((4-hydroxy-3-methoxyphenyl)diazenyl) naphthalene-1,3-disulfonic acid were studied by adding 0.2 mL DPPH (0.75 mM)) to compound 8-((4-hydroxy-3-methoxyphenyl)diazenyl) naphthalene-1,3-disulfonic acid (III) (3 μM) in ethanol. After 30 min of incubation in the dark, the absorbance was read against a blank at 517 nm. Ascorbic acid (vitamin C) was used as standard antioxidants (positive control). A blank sample was prepared by 0.2 ml of DPPH in 3 mL ethanol. A negative control sample was run using ethanol instead of the sample. The radical scavenging inhibition was calculated using the following equation: […]

Compound	Inhibition (radical scavenging inhibition) [%]	antioxidant potential to vanish the DPPH radical distinctive colors, compared to vitamin C (DPPH in vitro test, vitamin C as positive control)
O=C1O[C@H]([C@@H](O)CO)C(O)=C1O [vit c, Ascorbic acid, reference compound]	74	–
COc1cc(/N=N/c2cccc3cc(S(=O)(=O)O)cc(S(=O)(=O)O)c23)ccc1O [Product III, 8-((4-hydroxy-3-methoxyphenyl)diazenyl) naphthalene-1,3-disulfonic acid]	48	high potential as an antioxidant compared to vitamin C
